ChEMBL document CHEMBL3611967, “Molecular design and synthesis of certain new quinoline derivatives having potential anticancer activity” (Eur J Med Chem, 2015)

What was measured:
MCF7 = experiment: Anticancer against human MCF7 cells assessed as tumor growth inhibition after 72 hrs by SRB assay; format: functional, cell-based; conditions: MCF7, 72 h
[1] = biological target: T1, Epidermal growth factor receptor (Homo sapiens, UniProt P00533); experiment: Inhibition of epidermal growth factor receptor kinase (unknown origin) using [33P]-ATP after 20 to 30 mins by radiometric assay
[2] = biological target: T1, Epidermal growth factor receptor; experiment: Inhibition of epidermal growth factor receptor kinase (unknown origin) using [33P]-ATP at 0.1 mM after 20 to 30 mins by radiometric assay
[3] = biological target: T1, Epidermal growth factor receptor; experiment: Inhibition of epidermal growth factor receptor kinase (unknown origin) using [33P]-ATP at 0.001 uM after 20 to 30 mins by radiometric assay

T1 sequence (P00533 whole entry): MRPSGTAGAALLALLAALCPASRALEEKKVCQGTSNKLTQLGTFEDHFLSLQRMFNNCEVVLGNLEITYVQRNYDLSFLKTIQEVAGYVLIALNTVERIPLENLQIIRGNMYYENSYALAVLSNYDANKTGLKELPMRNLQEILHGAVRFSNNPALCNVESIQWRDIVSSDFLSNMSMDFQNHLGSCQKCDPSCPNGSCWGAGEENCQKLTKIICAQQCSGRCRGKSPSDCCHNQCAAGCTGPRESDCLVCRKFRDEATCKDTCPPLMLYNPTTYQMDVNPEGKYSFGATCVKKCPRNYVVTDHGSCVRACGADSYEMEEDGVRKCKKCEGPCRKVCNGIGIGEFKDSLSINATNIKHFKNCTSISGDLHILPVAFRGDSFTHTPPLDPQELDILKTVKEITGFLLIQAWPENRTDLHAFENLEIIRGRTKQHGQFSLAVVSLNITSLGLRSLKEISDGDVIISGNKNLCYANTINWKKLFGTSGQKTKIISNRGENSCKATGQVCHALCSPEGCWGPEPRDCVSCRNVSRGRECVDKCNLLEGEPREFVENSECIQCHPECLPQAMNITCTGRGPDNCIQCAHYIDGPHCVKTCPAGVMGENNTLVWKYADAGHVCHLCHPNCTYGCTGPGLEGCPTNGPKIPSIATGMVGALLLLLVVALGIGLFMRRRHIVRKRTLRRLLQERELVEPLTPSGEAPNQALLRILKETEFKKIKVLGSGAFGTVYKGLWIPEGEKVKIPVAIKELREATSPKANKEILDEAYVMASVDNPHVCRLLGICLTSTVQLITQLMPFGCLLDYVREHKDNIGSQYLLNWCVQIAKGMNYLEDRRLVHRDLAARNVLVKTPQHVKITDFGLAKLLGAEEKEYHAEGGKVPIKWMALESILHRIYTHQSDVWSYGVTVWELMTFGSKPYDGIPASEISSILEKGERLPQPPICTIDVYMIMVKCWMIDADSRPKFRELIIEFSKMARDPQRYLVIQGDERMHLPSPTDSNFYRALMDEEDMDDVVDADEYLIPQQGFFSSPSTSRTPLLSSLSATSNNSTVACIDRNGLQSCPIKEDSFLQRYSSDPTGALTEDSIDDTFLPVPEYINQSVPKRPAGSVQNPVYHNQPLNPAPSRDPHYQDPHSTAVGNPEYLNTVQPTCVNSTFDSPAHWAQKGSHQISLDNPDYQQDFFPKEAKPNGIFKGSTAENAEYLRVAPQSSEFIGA

Row | IC50 (MCF7) | Compound | further results
1 | 326 µM | NC(=O)c1cnc2ccc(-c3csc(NC(=S)Nc4ccccc4)n3)cc2c1Nc1ccc(Cl)cc1 | –
2 | 14 µM | Cc1cc(NS(=O)(=O)c2ccc(N/C=C(/C#N)C(=O)Nc3ccc(Br)cc3)cc2)no1 | –
3 | 145 µM | Cc1cc(NS(=O)(=O)c2ccc3ncc(C(N)=O)c(Nc4ccc(Cl)cc4)c3c2)no1 | –
4 | 277 µM | NC(=O)c1cnc2ccc(C(=O)/C=C/c3ccc(Cl)cc3)cc2c1Nc1ccc(Cl)cc1 | –
5 | 2.16 µM | Cc1ccc(Nc2c(C(N)=O)cnc3ccc(C(=O)/C=C/c4ccc(N(C)C)cc4)cc23)cc1 | –
6 | 334 µM | NC(=O)c1cnc2ccc(-c3csc(N)n3)cc2c1Nc1ccc(Br)cc1 | –
7 | 28.4 µM | Cc1cc(NS(=O)(=O)c2ccc(N/C=C(/C#N)C(=O)Nc3ccc(Cl)cc3)cc2)no1 | –
8 | 3.46 µM | CN(C)c1ccc(/C=C/C(=O)c2ccc3ncc(C(N)=O)c(Nc4ccc(Cl)cc4)c3c2)cc1 | IC50 [1]: 5.28 µM; inhibition [2]: 3%; inhibition [3]: 1%
9 | 120 µM | Cc1ccc(Nc2c(C(N)=O)cnc3ccc(S(=O)(=O)Nc4cc(C)on4)cc23)cc1 | –
10 | 62.2 µM | Cc1ccc(Nc2c(C(N)=O)cnc3ccc(-c4csc(N)n4)cc23)cc1 | –
11 | 50.9 µM | Cc1ccc(NC(=O)/C(C#N)=C\Nc2ccc(S(=O)(=O)Nc3cc(C)on3)cc2)cc1 | –
12 | 386 µM | Cc1ccc(Nc2c(C(N)=O)cnc3ccc(-c4csc(NC(=S)Nc5ccccc5)n4)cc23)cc1 | –
13 | – | C=CC(=O)Nc1ccc2ncnc(Nc3cc(F)c(Cl)c(Cl)c3)c2c1 | IC50 [1]: 3.7e-05 µM
14 | 315 µM | NC(=O)c1cnc2ccc(-c3csc(N)n3)cc2c1Nc1ccc(Cl)cc1 | –
15 | 51 µM | CN(C)c1ccc(/C=C/C(=O)c2ccc3ncc(C(N)=O)c(Nc4ccc(Br)cc4)c3c2)cc1 | –
16 | 33.7 µM | Cc1cc(NS(=O)(=O)c2ccc3ncc(C(N)=O)c(Nc4ccc(Br)cc4)c3c2)no1 | –
17 | 41.2 µM | Cc1ccc(Nc2c(C(N)=O)cnc3ccc(C(=O)/C=C/c4ccc(Cl)cc4)cc23)cc1 | –
18 | 657 µM | NC(=O)c1cnc2ccc(-c3csc(NC(=S)Nc4ccccc4)n3)cc2c1Nc1ccc(Br)cc1 | –
19 | 328 µM | NC(=O)c1cnc2ccc(C(=O)/C=C/c3ccc(Cl)cc3)cc2c1Nc1ccc(Br)cc1 | IC50 [1]: 4.82 µM; inhibition [2]: -3%; inhibition [3]: 0%
